Measurements as given in patent US20190152962A1, “CYCLOPROPYL DERIVATIVES AS ROR-GAMMA MODULATORS” (CADILA HEALTHCARE LIMITED, priority 2016, published 2019).
pIC50: −log10 of the molar value.

Tests used:
[1] = tested on: secreted IL-17 in peripheral blood mononuclear cells (PBMCs); test: Human IL-17 inhibition assay; format: cell-based; conditions: PBMC, anti-CD3/anti-CD28, 72 h, read-out: IL17 IC50
Procedure: Peripheral blood mononuclear cells (PBMCs) were isolated from healthy volunteers and subjected to T cell polarization assay. Two million PBMCs were placed on anti-CD3 (Biolegend, US) coated 96-well plates and 1 μg/mL of anti-CD28 (Biolegend, US) was added along with RORγt inhibitors or the vehicle control and incubated at 37° C. and 5% CO2 for 72 h. At the end of incubation time, the supernatant was collected and analyzed for secreted IL-17 using sandwich enzyme immunoassay (Mabtech AB, Sweden). The results were analyzed using Graphpad Prism and the half-maximal inhibitory concentrations (IC50) of the test compounds were derived (Table 4).

full length human RORγt = molecular target: T1, full length human RORγt (Homo sapiens, UniProt P51449); test: 5×RORE based luciferase assay; format: cell-based; conditions: COS-7 cells transfected with 5×RORE-Luc and hRORγt, 18-20 h treatment
T1 construct: full length human RORγt together in COS-7 cells; expressed in transfected cells; host or cells: COS-7
T1 sequence (P51449 1-497 isoform P51449-2): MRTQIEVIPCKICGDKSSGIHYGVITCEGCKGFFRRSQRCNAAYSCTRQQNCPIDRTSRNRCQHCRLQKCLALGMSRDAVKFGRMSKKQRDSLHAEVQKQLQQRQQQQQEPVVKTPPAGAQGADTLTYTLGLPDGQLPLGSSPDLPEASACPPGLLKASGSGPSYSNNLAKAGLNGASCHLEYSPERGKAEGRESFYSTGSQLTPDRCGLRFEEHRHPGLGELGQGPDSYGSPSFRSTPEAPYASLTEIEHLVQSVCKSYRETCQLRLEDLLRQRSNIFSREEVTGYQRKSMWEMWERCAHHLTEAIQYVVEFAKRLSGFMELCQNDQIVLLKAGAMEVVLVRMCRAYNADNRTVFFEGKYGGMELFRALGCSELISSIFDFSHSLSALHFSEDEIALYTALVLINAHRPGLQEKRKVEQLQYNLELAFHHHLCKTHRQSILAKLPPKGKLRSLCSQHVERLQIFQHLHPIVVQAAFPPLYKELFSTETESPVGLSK
Procedure: Human RORγt (hRORγt) inhibitors were screened in RORE (RORγt Response Element) based Luciferase assay by transient transfection of 5×RORE (5 tandem repeats of RORγt Response Element) and full length human RORγt together in COS-7 cells. COS-7 cells were maintained as monolayer in complete DMEM (High Glucose) medium in presence of 2 mM Glutamin and 1× Sodium Pyruvate. Day before transfection, 15000 cells were seeded in 96 well cell culture plate in 100 μl antibiotic free medium and incubated at 37° C. in 5% CO2 containing humidified chamber O/N. Prior to transfection, cells were fed with fresh complete growth medium and incubated until the addition of transfection complex. Transfection complex for the required numbers of wells were prepared from pGL2-promoter-5×RORE-Luc plasmid, pcDNA3.1 (+)-hRORγt expression plasmid, pβ-GAL plasmid (transfection control), and Lipofectamine 3000 (Invitrogen). 50 μl of transfection complex were added in 100 μl of complete medium to respective wells, mixed gently and plate was incubated for 5-6 h at 37° C. in 5% CO2 containing humidified chamber. After 5 h of transfection, content of the wells were aspirated and cells were treated with increasing concentration of RORγt inverse agonist in medium devoid of serum with a final DMSO concentration of 0.2% for 18-20 h at 37° C. in 5% CO2 containing humidified chamber. Next day, cells were lysed and the lysates were assayed for luciferase and β-GAL activity using Promega's luciferase assay system and an in-house made β-GAL assay buffer respectively. Luciferase signals were normalized with β-GAL and % activity was determined with respect to that of 10 nM control ligand.
IC50 of selected compounds were then determined by nonlinear regression analysis of % activity, plotted against compound concentration (Table 4).

| pIC50 (full length human RORγt) | SMILES | pIC50 [1] |
| --- | --- | --- |
| 8.23 | CCS(=O)(=O)c1ccc(CC(=O)Nc2cc(Cl)c(C3(c4noc(-c5ccc(Cl)cc5Cl)n4)CC3)c(Cl)c2)cc1 [Example 12, N-(3,5-dichloro-4-(1-(5-(2,4-dichlorophenyl)-1,2,4-oxadiazol-3-yl)cyclopropyl)phenyl)-2-(4-(ethylsulfonyl)phenyl)acetamide] | 7.97 |
| 8.05 | CCS(=O)(=O)c1ccc(CC(=O)Nc2cc(Cl)c(C3(c4noc(-c5ccc(Cl)cc5)n4)CC3)c(Cl)c2)cc1 [Example 13, N-(3,5-dichloro-4-(1-(5-(4-chlorophenyl)-1,2,4-oxadiazol-3-yl)cyclopropyl)phenyl)-2-(4-(ethylsulfonyl)phenyl)acetamide] | 7.57 |
| 8.89 | CCS(=O)(=O)c1ccc(CC(=O)Nc2cc(Cl)c(C3(c4noc(-c5ccc(C#N)cc5)n4)CC3)c(Cl)c2)cc1 [Example 14, N-(3,5-dichloro-4-(1-(5-(4-cyanophenyl)-1,2,4-oxadiazol-3-yl)cyclopropyl)phenyl)-2-(4-(ethylsulfonyl)phenyl)acetamide] | 8.02 |
| 8.24 | CCS(=O)(=O)c1ccc(CC(=O)Nc2cc(Cl)c(C3(c4noc(-c5ccc(OC)cc5F)n4)CC3)c(Cl)c2)cc1 [Example 15, N-(3,5-dichloro-4-(1-(5-(2-fluoro-4-methoxyphenyl)-1,2,4-oxadiazol-3-yl)cyclopropyl)phenyl)-2-(4-(ethylsulfonyl)phenyl)acetamide] | 7.57 |
| 9.05 | CCS(=O)(=O)c1ccc(CC(=O)Nc2cc(Cl)c(C3(c4noc(-c5cccs5)n4)CC3)c(Cl)c2)cc1 [Example 16, N-(3,5-dichloro-4-(1-(5-(thiophen-2-yl)-1,2,4-oxadiazol-3-yl)cyclopropyl)phenyl)-2-(4-(ethylsulfonyl)phenyl)acetamide] | 7.38 |
| 8.72 | CCS(=O)(=O)c1ccc(CC(=O)Nc2cc(Cl)c(C3(c4noc(-c5ccc(Cl)s5)n4)CC3)c(Cl)c2)cc1 [Example 17, N-(3,5-dichloro-4-(1-(5-(5-chlorothiophen-2-yl)-1,2,4-oxadiazol-3-yl)cyclopropyl)phenyl)-2-(4-(ethylsulfonyl)phenyl)acetamide] | 8.22 |
| 8.41 | CCS(=O)(=O)c1ccc(CC(=O)Nc2cc(Cl)c(C3(c4noc(-c5ccc(C)s5)n4)CC3)c(Cl)c2)cc1 [Example 18, N-(3,5-dichloro-4-(1-(5-(5-methylthiophen-2-yl)-1,2,4-oxadiazol-3-yl)cyclopropyl)phenyl)-2-(4-(ethylsulfonyl)phenyl)acetamide] | 7.63 |
| 8.80 | CCS(=O)(=O)c1ccc(CC(=O)Nc2cc(Cl)c(C3(c4noc(-c5cccnc5)n4)CC3)c(Cl)c2)cc1 [Example 19, N-(3,5-dichloro-4-(1-(5-(pyridin-3-yl)-1,2,4-oxadiazol-3-yl)cyclopropyl)phenyl)-2-(4-(ethylsulfonyl)phenyl)acetamide] | 7.57 |
| 7.80 | CCS(=O)(=O)c1ccc(CC(=O)Nc2cc(Cl)c(C3(c4noc(-c5ccc(OC)nc5)n4)CC3)c(Cl)c2)cc1 [Example 20, N-(3,5-dichloro-4-(1-(5-(6-methoxypyridin-3-yl)-1,2,4-oxadiazol-3-yl)cyclopropyl)phenyl)-2-(4-(ethylsulfonyl)phenyl)acetamide] | 7.95 |
| 8.85 | CCS(=O)(=O)c1ccc(CC(=O)Nc2cc(Cl)c(C3(c4noc(C(C)C)n4)CC3)c(Cl)c2)cc1 [Example 23, N-(3,5-dichloro-4-(1-(5-isopropyl-1,2,4-oxadiazol-3-yl)cyclopropyl)phenyl)-2-(4-(ethylsulfonyl)phenyl)acetamide] | 7.68 |
| 8.82 | CCS(=O)(=O)c1ccc(CC(=O)Nc2cc(Cl)c(C3(c4noc(C5CC5)n4)CC3)c(Cl)c2)cc1 [Example 25, N-(3,5-dichloro-4-(1-(5-cyclopropyl-1,2,4-oxadiazol-3-yl)cyclopropyl)phenyl)-2-(4-(ethylsulfonyl)phenyl)acetamide] | 7.85 |
| 8.60 | CCS(=O)(=O)c1ccc(CC(=O)Nc2cc(Cl)c(C3(c4noc(C5CC(F)(F)C5)n4)CC3)c(Cl)c2)cc1 [Example 26, N-(3,5-dichloro-4-(1-(5-(3,3-difluorocyclobutyl)-1,2,4-oxadiazol-3-yl)cyclopropyl)phenyl)-2-(4-(ethylsulfonyl)phenyl)acetamide] | 8.14 |
| 7.89 | CCS(=O)(=O)c1ccc(CC(=O)Nc2cc(Cl)c(C3(c4noc(C5CCOCC5)n4)CC3)c(Cl)c2)cc1 [Example 27, N-(3,5-dichloro-4-(1-(5-(tetrahydro-2H-pyran-4-yl)-1,2,4-oxadiazol-3-yl)cyclopropyl)phenyl)-2-(4-(ethylsulfonyl)phenyl)acetamide] | 7.97 |
| 8.24 | CCS(=O)(=O)c1ccc(CC(=O)Nc2cc(F)c(C3(c4noc(-c5ccc(F)cc5)n4)CC3)c(F)c2)cc1 [Example 28, N-(3,5-difluoro-4-(1-(5-(4-fluorophenyl)-1,2,4-oxadiazol-3-yl)cyclopropyl)phenyl)-2-(4-(ethylsulfonyl)phenyl)acetamide] | 7.38 |
| 7.71 | CCS(=O)(=O)c1ccc(CC(=O)Nc2cc(F)c(C3(c4noc(-c5ccc(F)cc5)n4)CC3)c(Cl)c2)cc1 [Example 29, N-(3-chloro-5-fluoro-4-(1-(5-(4-fluorophenyl)-1,2,4-oxadiazol-3-yl)cyclopropyl)phenyl)-2-(4-(ethylsulfonyl)phenyl)acetamide] | 7.72 |
| 7.90 | CCS(=O)(=O)c1ccc(CC(=O)Nc2cc(F)c(C3(c4noc(-c5ccc(C(F)(F)F)cc5)n4)CC3)c(Cl)c2)cc1 [Example 31, N-(3-chloro-5-fluoro-4-(1-(5-(4-(trifluoromethyl)phenyl)-1,2,4-oxadiazol-3-yl)cyclopropyl)phenyl)-2-(4-(ethylsulfonyl)phenyl)acetamide] | 7.30 |
| 8.22 | CCS(=O)(=O)c1ccc(CC(=O)Nc2cc(F)c(C3(c4noc(-c5ccc(C#N)cc5)n4)CC3)c(Cl)c2)cc1 [Example 32, N-(3-chloro-4-(1-(5-(4-cyanophenyl)-1,2,4-oxadiazol-3-yl)cyclopropyl)-5-fluorophenyl)-2-(4-(ethylsulfonyl)phenyl)acetamide] | 7.74 |
| 7.70 | CCS(=O)(=O)c1ccc(CC(=O)Nc2cc(C)c(C3(c4noc(-c5ccc(F)cc5)n4)CC3)c(C)c2)cc1 [Example 33, 2-(4-(ethylsulfonyl)phenyl)-N-(4-(1-(5-(4-fluorophenyl)-1,2,4-oxadiazol-3-yl)cyclopropyl)-3,5-dimethylphenyl)acetamide] | 7.62 |
| 8.64 | CCS(=O)(=O)c1ccc(CC(=O)Nc2cc(Cl)c(C3(c4nc(-c5ccc(F)cc5)no4)CC3)c(Cl)c2)cc1 [Example 35, N-(3,5-dichloro-4-(1-(3-(4-fluorophenyl)-1,2,4-oxadiazol-5-yl)cyclopropyl)phenyl)-2-(4-(ethylsulfonyl)phenyl)acetamide] | 7.92 |
| 8.61 | CCS(=O)(=O)c1ccc(CC(=O)Nc2cc(Cl)c(C3(c4nc5ccc(F)cc5o4)CC3)c(Cl)c2)cc1 [Example 36, N-(3,5-dichloro-4-(1-(6-fluorobenzo[d]oxazol-2-yl)cyclopropyl)phenyl)-2-(4-(ethylsulfonyl)phenyl)acetamide] | 7.72 |
| 8.82 | CCS(=O)(=O)c1ccc(CC(=O)Nc2cc(Cl)c(C3(c4ncc(-c5ccc(F)cc5)o4)CC3)c(Cl)c2)cc1 [Example 38, N-(3,5-dichloro-4-(1-(5-(4-fluorophenyl)oxazol-2-yl)cyclopropyl)phenyl)-2-(4-(ethylsulfonyl)phenyl)acetamide] | 7.64 |
